Experiment: Solid stability against light (impurity content by HPLC after storage)
Format: physicochemical
Details: for Impurity content (%): HPLC; for change in impurity content before and after storage: 25° C./1000 Lx, 1 month and 3 months
Experimental: Column: ODS column (inner diameter=4.6 mm, column length=250 mm, particle size=5 μm) Column temperature: 30° C. Detection wavenumber: 282 nm Flow rate: 1.0 mL/min Mobile phase: Solution A: CH3CN/H2O/70% HClO4=100/900/1 (v/v/v) Solution B: CH3CN/H2O/70% HClO4=900/100/1 (v/v/v)
All of the peaks and peak areas were calculated from the chromatogram, and the impurity amount for each peak (except for the peak of N-(3-cyano-4-methyl-1H-indol-7-yl)-3-cyanobenzenesulfonamide) was calculated according to the following formula.
Individual impurity content (%)=(individual impurity peak area)/(total of all peak areas)×100
Peaks with impurity contents of 0.05% or greater were recorded as impurity peaks, and their total was recorded as the impurity content of the crystals.
Impurity content (%)=Total of individual impurity contents (%)
The crystals obtained in Example 1C, Example 1E and Example 1F were stored for 1 month and 3 months at 25° C./1000 Lx (LT-120D3J Light Stability Tester by Nagano Science, Japan), and then the impurity contents were measured by HPLC.
HPLC was conducted under the same conditions as in Test Example 1, except that elution was performed with the gradient program shown in Table 14.
The impurity content of the crystals was determined by the same method as described for Test Example 1. […] That is, the crystals obtained in Examples 1F and 1C (Form A and Form C) clearly had higher stability against light.

[1] = solid crystals stored at 25° C./1000 Lx/1 month
[2] = solid crystals stored at 25° C./1000 Lx/3 months

Row | Impurity content (%) [1] | Impurity content (%) [2] | change in impurity content before and after storage (solid crystals) | Impurity content (%) (solid crystals, before storage) | SMILES
1 | 0.51% | 0.51% | no change | 0.51% | Cc1ccc(NS(=O)(=O)c2cccc(C#N)c2)c2[nH]cc(C#N)c12 [Example 1C, N-(3-cyano-4-methyl-1H-indol-7-yl)-3-cyanobenzenesulfonamide]
2 | 0.83% | 4.44% | increased | 0.50% | Cc1ccc(NS(=O)(=O)c2cccc(C#N)c2)c2[nH]cc(C#N)c12 [Example 1E, N-(3-cyano-4-methyl-1H-indol-7-yl)-3-cyanobenzenesulfonamide]
3 | 0.41% | 0.51% | no change | 0.42% | Cc1ccc(NS(=O)(=O)c2cccc(C#N)c2)c2[nH]cc(C#N)c12 [Example 1F, N-(3-cyano-4-methyl-1H-indol-7-yl)-3-cyanobenzenesulfonamide]

Source: patent US20090247768A1, “CRYSTALLINE SULFONAMIDE-CONTAINING INDOLE COMPOUND AND PROCESS FOR PREPARING THE SAME” (priority 2003, published 2009)
